{"source": "ChEMBL document CHEMBL1150497", "about": "“Imidazol-1-ylalkanoate esters and their corresponding acids. A novel series of extrinsic 1H NMR probes for intracellular pH” (Bioorg Med Chem Lett, 1992)"}
{"test": "pKa value by 1H NMR spectroscopy", "type": "physicochemical"}
{"smiles": "CCOC(=O)CC(CC(=O)OCC)n1ccnc1", "pKa": 6.45}
{"smiles": "O=C(O)Cn1ccnc1", "pKa": 7.23}
{"smiles": "O=C(O)CC(CC(=O)O)n1ccnc1", "pKa": 7.37}
{"smiles": "c1c[nH]cn1", "note": "[IMIDAZOLE]", "pKa": 7.14}
{"smiles": "CCOC(=O)CC(C(=O)OCC)n1ccnc1", "note": "(centres undefined)", "pKa": 6.02}
{"smiles": "CCOC(=O)CC(C(=O)O)n1ccnc1", "note": "(centres undefined)", "pKa": 6.86}
{"smiles": "COC(=O)Cn1ccnc1", "pKa": 7.1}
{"smiles": "O=C(O)CC(C(=O)O)n1ccnc1", "note": "(centres undefined)", "pKa": 7.32}
{"smiles": "CCOC(=O)C(C(=O)OCC)n1ccnc1", "pKa": 5.02}
